The record followed here is PubChem BioAssay AID624285 (Broad Institute, 2012).

SMILES strings stand for the structures. Where “and” joins values, the source holds several entries; their conditions need not be identical. Identical values can stand only once. Calls of active or inactive are those of the source.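 Rule for the calls: active = signal-decreasing dose-response curve whose fitted half-maximal concentration is at or below twice the highest valid tested dose; inconclusive = flat fit at 30 to 70% signal loss, or poor fit; inactive = the rest.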

A short description of the assay: cytotoxicity in mammalian cells, dose response, cytotoxicity control for PDI inhibitor project, cell-based, 24 h, luminescence, cherry-picked samples (AID 624285). As to conditions: NIH3T3/HeLa viability, CellTiter-Glo ATP luminescence, 24 h; at 35 µM (top of the series).
On to `CC(C)(C)OC(=O)N[C@@H](Cc1c[nH]c2ccccc12)c1nnc(SCC(N)=O)o1`, for which the activity change, negative = cytotoxicity is -7.43% (inactive). With `CC(=O)N1CCC(C(=O)NCCOc2cccc(C)c2)CC1`, the activity change, negative = cytotoxicity is -15.7% (inactive).

In the case of `CCOC(=O)c1ccc(NC(=O)C2(c3ccc(Cl)cc3)CCCC2)cc1`, the activity change, negative = cytotoxicity was -21.1% (inactive). As for `CCCn1nnnc1NC(=O)c1cccs1`, the activity change, negative = cytotoxicity was -5.77% (inactive). For `O=S(=O)(c1cc(F)ccc1F)N1CCN(c2ncccn2)CC1` the value was -15.2% (inactive); for `Cc1ccc(N2CC(C(=O)Nc3nc4ccc(S(C)(=O)=O)cc4s3)CC2=O)cc1` (stereo unspecified), -4.02% (inactive); for `COc1ccc(C2c3ccc(O)cc3Oc3ncn(CCCO)c(=N)c32)cc1` (stereo unspecified), -8.08% (inactive). For `CN(C)S(=O)(=O)c1ccc(C(=O)Nc2ccc3nc(N4CCOCC4)sc3c2)cc1` the value was -20.7% (inactive). As for `Cc1noc(C)c1S(=O)(=O)Nc1ccc2c(c1)CC(=O)N([C@@H](C)CO)C[C@H](C)[C@H](CN(C)S(=O)(=O)c1ccc(F)cc1)O2`, the figure is 7.36% (inactive). Consider `Cc1cc(NC(=O)COC(=O)C2CC(=O)N(c3ccccc3)C2)no1` (stereo unspecified), for which the activity change, negative = cytotoxicity was -2.55% (inactive). Take `NC1=NC[C@H](Cc2ccc(O)cc2)N1CC1CCCCC1`: the activity change, negative = cytotoxicity was -11.8% (inactive). For `CCOC(=O)C1(C)CCCN(C(=O)c2cccc(Cl)c2)C1` (stereo unspecified) the value was -5.27% (inactive); for `COc1ccc(S(=O)(=O)NCC(c2ccc(F)cc2)N2CCOCC2)cc1Br` (stereo unspecified), -10.1% (inactive); for `Cn1cc(Cl)c(C(=O)OCC(=O)Nc2ccccc2)n1`, -7.99% (inactive). `CC1Cc2ccccc2N1C(=O)CSc1nnc2sc3ccccc3n12` (stereo unspecified): the activity change, negative = cytotoxicity is -7.39% (inactive). For `C[C@H](CO)N1C[C@H](C)[C@@H](CN(C)S(=O)(=O)c2ccccc2)Oc2ccc(NC(=O)Cc3cn(C)c4ccccc34)cc2C1=O` the value was -1.88% (inactive); for `COc1ccc(C(=O)Nc2ccccc2C(=O)NCc2ccco2)cc1`, -14.7% (inactive). As for `COCC(=O)N(C)C1(c2nnnn2CCOC(=O)Nc2ccc(Cl)cc2)CCCC1`, the figure is -5.83% (inactive). As for `CC(=O)C1=C(O)C(=O)N(CCc2c[nH]c3ccccc23)C1c1ccc(O)cc1` (stereo unspecified), the figure is -8.38% (inactive); as for `CN(C)C(=O)CSc1n[nH]c(-c2ccco2)n1`, -5.07% (inactive). As for `CC1CCc2sc(C(=O)N/N=C/C3CCCCC3)cc2C1` (stereo unspecified), the activity change, negative = cytotoxicity was -8.35% (inactive).

For `COc1ccc(OC)c2[nH]c(=O)c(CCNC(=O)C(=O)c3c(C)[nH]c4ccccc34)cc12`, the activity change, negative = cytotoxicity was -1.3% (inactive). For `O=C(O)CCCCCn1c(SCC(=O)c2ccc(O)c(O)c2)nc2ccsc2c1=O` the value was -10.6% (inactive); for `Cc1ccc(S(=O)(=O)N2CCC(C(=O)Nc3ccc(S(=O)(=O)N4CCCC4)cc3)CC2)cc1`, -22.6% (inactive); for `CC(C)Cn1c(N)c(C(=O)COC(=O)c2ccc(O)cc2)c(=O)n(C)c1=O`, -14.4% (inactive). As for `C[C@@H](C(=O)NCc1ccccc1)N1C(=O)C2CC=CCC2C1=O` (stereo partly specified), the figure is -8.35% (inactive); as for `Cc1ccc(-c2cc(C(=O)NNC(=O)c3csc(N4CCOCC4)n3)c3ccccc3n2)cc1`, -13.2% (inactive). For `C/C=C(\C)C(=O)NCCN1C2=NC[C@H](Cc3ccc(O)cc3)N2C[C@H]1Cc1ccc(O)cc1` the value was -2.15% (inactive).

Take `O=C(CCN1C(=O)C2C3C=CC(C4CC34)C2C1=O)Oc1ccccc1` (stereo unspecified): the activity change, negative = cytotoxicity was -3.44% (inactive). For `CCCCN(C(=O)C1=CC=CN2CCS(=O)(=O)N=C12)c1ccccc1` the value was -2.89% (inactive); for `O=C(Nc1cccc(S(=O)(=O)Nc2ccc(SC(F)F)cc2)c1)C1CCC1`, -13.1% (inactive); for `COc1cccc(-n2ccnc2SCC(=O)Nc2cc(OC)ccc2OC)c1`, -15.9% (inactive).

As to `O=C(O)c1ccccc1Cc1ccc(F)c2ccccc12`, the activity change, negative = cytotoxicity is -10.5% (inactive). `O=C1NC[C@H](Cc2ccccc2)N(C[C@H]2CCCN2C[C@H](Cc2ccc(O)cc2)N2C[C@H](Cc3ccc(O)cc3)N(CC3CCCCCC3)C(=O)C2=O)C1=O`: the activity change, negative = cytotoxicity was -18.9% (inactive). Regarding `O=C(/C=C/c1ccc(NC(=O)c2ccccc2-c2ccccc2C(=O)O)cc1)c1ccccc1`, the activity change, negative = cytotoxicity is -8.34% (inactive). As for `COc1ccccc1N1CCN(C(=O)C(=O)N/N=C/c2cccc(O)c2)CC1`, the figure is -8.29% (inactive); as for `CCc1nc2ccc(C(=O)N(CC)CC(=O)Nc3c(F)cccc3F)cc2nc1CC`, -5.83% (inactive); as for `CCCNC(=O)Cn1c(-c2ccc(F)cc2)cc(C(=O)OCC)c1C`, -18.9% (inactive). For `COc1ccc2c(CC(=O)OCC(=O)N(C)c3c(N)n(Cc4ccccc4)c(=O)[nH]c3=O)coc2c1` the value was -8.77% (inactive). As for `CCCCNC(=O)N1CCN(C(=O)C2CCCO2)CC1` (stereo unspecified), the figure is -4.25% (inactive); as for `CCOc1ccc(/C=N/OC(C)C(=O)NCc2ccc3c(c2)OCO3)cc1` (stereo unspecified), -5.51% (inactive). `O=C(Cn1nnc2ccccc21)OCC(=O)c1ccccc1`: the activity change, negative = cytotoxicity is -11.3% (inactive). On to `CN(CCC(=O)Nc1ccc(Br)cc1)Cc1ccccc1`, for which the activity change, negative = cytotoxicity was -5.93% (inactive).

For the compound `CCOC(=O)c1c(CN2CCN(Cc3ccccc3)CC2)n(C)c2cc(Br)c(OC)cc12`, the activity change, negative = cytotoxicity is -17.4% (inactive).

Regarding `Cc1c(O)ccc2c(CN3CCN(Cc4ccccc4)CC3)cc(=O)oc12`, the activity change, negative = cytotoxicity is -14.2% (inactive).

In the case of `Cc1nn(CC(=O)NCC2CCCO2)c(C)c1[N+](=O)[O-]` (stereo unspecified), the activity change, negative = cytotoxicity was -7.91% (inactive). For `C[C@]12CC[C@@H]3c4ccc(O[C@@H]5O[C@H](C(=O)O)[C@@H](O)[C@H](O)[C@H]5O)cc4CC[C@H]3[C@@H]1C[C@@H](O)[C@@H]2O` the value was -6.13% (inactive). As for `C[C@@H](CN1C2=NC[C@H](Cc3ccc(O)cc3)N2C[C@H]1Cc1ccc(O)cc1)NC(=O)CCC1CCCCC1`, the figure is -8.59% (inactive); as for `O=C(NCc1cccs1)C1CC(c2ccc(F)cc2)=NO1` (stereo unspecified), -16.4% (inactive). For `Cc1cc(C)c2c(=O)n3c(nc2c1)C(Cc1ccc(O)cc1)NC(=O)c1cccnc1-3` (stereo unspecified) the value was -10.3% (inactive). In the case of `CC(C)CCOc1ccc(C2(C)NC(=O)N(CN3CCOCC3)C2=O)cc1` (stereo unspecified), the activity change, negative = cytotoxicity is -15.3% (inactive). For the compound `CC(C)N(C)C(=O)CCc1nnc(CCc2c[nH]c3ccccc23)o1`, the activity change, negative = cytotoxicity was -10.2% (inactive). As for `CCOC(=O)C(C)c1n[nH]c(=O)c2ccccc12` (stereo unspecified), the figure is -6.39% (inactive); as for `O=C(NCc1ccccn1)Nc1cccc(Cl)c1`, -8.23% (inactive). For the compound `Cc1cc(NC(=O)CSc2[nH]c(=O)cc(C(F)(F)F)c2C#N)no1`, the activity change, negative = cytotoxicity is -3.53% (inactive). For `O=C(Nc1oc2ccccc2c(=O)c1-c1ccc(Cl)cc1)c1ccco1` the value was -2.88% (inactive); for `C[C@@H]1CN([C@H](C)CO)C(=O)c2cc(NC(=O)Cc3cn(C)c4ccccc34)ccc2O[C@H]1CN(C)S(=O)(=O)c1ccc(F)cc1`, -11.7% (inactive) and -2.14% (inactive); for `CCCCC1CCC(c2nc(-c3ccccn3)no2)CC1` (stereo unspecified), -12.5% (inactive). For `Cn1c(=O)n(CCCOc2ccc(Br)cc2)c2ccccc21` the value was -15.3% (inactive). As to `O=C1NC(Cc2ccc(O)cc2)c2nc3cc(Cl)ccc3c(=O)n2-c2ncccc21` (stereo unspecified), the activity change, negative = cytotoxicity was -16.3% (inactive). For `CCN(CC)CCNC(=O)C(C(=O)c1ccccc1)n1ccccc1=O` (stereo unspecified) the value was -1.54% (inactive). `COc1ccc(N(Cc2cc3cc(OC)ccc3[nH]c2=O)C(=O)C2CCCO2)cc1` (stereo unspecified): the activity change, negative = cytotoxicity is -10.5% (inactive). For `C[C@@H]1O[C@@H](OC[C@@H]2O[C@H](Oc3c(-c4ccc(O)cc4)oc4cc(O)cc(O)c4c3=O)[C@@H](O)[C@H](O)[C@H]2O)[C@H](O)[C@H](O)[C@H]1O` the value was 0.405% (inactive).

On to `COc1cccc(NC(=O)CN(C)C(=O)/C=C/c2cc(OC)ccc2OC)c1`, for which the activity change, negative = cytotoxicity was -4.31% (inactive). For the compound `C=CCNc1ncnc2c1ncn2[C@H]1CN(Cc2cccc3ccccc23)C[C@@H](CO)O1`, the activity change, negative = cytotoxicity is -8.26% (inactive). As for `COc1cc(C(=O)N2CCN(C/C=C/c3ccccc3)CC2)cc(OC)c1OC`, the figure is -12% (inactive); as for `O=C(NC1CCCCC1)C1CCN(S(=O)(=O)c2cccs2)CC1`, -7.67% (inactive).

As to `C[C@@H]1O[C@@H](O[C@H]2[C@H](O)[C@@H](O)[C@H](Oc3c(-c4ccc(O)c(O)c4)oc4cc(O)cc(O)c4c3=O)O[C@@H]2CO)[C@H](O)[C@H](O)[C@H]1O`, the activity change, negative = cytotoxicity was 1.36% (inactive). On to `NC(=O)CSc1nnc([C@@H](N)Cc2c[nH]c3ccccc23)o1`, for which the activity change, negative = cytotoxicity is -10.6% (inactive).

Regarding `NC(=O)c1nsc(C(=O)N(CC(=O)NCc2ccc(F)cc2)Cc2ccco2)c1N`, the activity change, negative = cytotoxicity was -24.6% (inactive). For `Cc1cc(Cl)ccc1OCc1n[nH]c(=S)n1C1CCCCC1` the value was -11% (inactive).
